Values quoted from earlier work in patent US20180185484A1, “PREPARATION AND USE OF PLATELET PRODUCTS” (Cerus Corporation, priority 2015, published 2018).

Test system: T lymphocytes
Details: treated platelet preparations, after photoactivation; Grass et al., 1998

Cc1oc2c(C)c3oc(=O)cc(C)c3cc2c1COCCN [amotosalen, 4′-(4-amino-2-oxa)butyl-4,5′,8-trimethylpsoralen]
reduction of viable T lymphocytes: greater than 5 logs
